For 42 molecules, IC50 results are on record in patent US20190194179A1, “ANTIBIOTIC COMPOUNDS” (DISCUVA LTD., priority 2016, published 2019).

SMILES strings stand for the structures. Structures can show the parent of a compound that is named as a salt.

This test has as its system Neisseria gonorrhoeae. As to the kind of experiment: EC50 determination: plate-based broth growth assay (absorbance at 600 nm) of Neisseria gonorrhoeae. Particulars: absorbance 600 nm after 20 hours at 37° C./5% CO2, read-out: IC50 (Inhibitory concentration) against Neisseria gonorrhoeae. Type of test: cell-based. Here is the method: Actively growing Neisseria gonorrhoeae on GC agar (based on; Spence et. al. (2008): Curr. Protoc. Microbiol. 8:4A.1.1-4A.1.26) plates are harvested and transferred to GC broth (based on; Spence et al (2008): Curr. Protoc. Microbiol. 8:4A.1.1-4A.1.26) to generate a liquid stock. This culture is allowed to establish and grow to mid-log phase (at 37° C./5% CO2), finally this culture is diluted (˜10^5 cells/ml) to generate a seed inoculum to establish plate-based broth assays. EC50 values were determined by assaying growth (absorbance read at 600 nm, after 20 hours at 37° C./5% CO2) of Neisseria gonorrhoeae across a 10-point dilution series of the test compound. The EC50 value is determined from transformed data to identify the concentration of compound giving a 50% response relative to control samples (no compound).
Turning to `NC(=O)c1csc(Nc2nc3ccc(Cl)cc3o2)n1` [Example 33, 2-((6-Chlorobenzo[d]oxazol-2-yl)amino)thiazole-4-carboxamide], the IC50 was at most 1000 nM.

For the molecule `NC(=O)c1csc(Nc2nc3cc(C(F)(F)F)c(Cl)cc3o2)n1` [Example 34, 2-((6-Chloro-5-(trifluoromethyl)benzo[d]oxazol-2-yl)amino)thiazole-4-carboxamide], the IC50 is at most 1000 nM.

Take `CN1CCN(c2cnc(Nc3nc4ccc(C(F)(F)F)cc4o3)s2)CC1` [Example 35, N-(5-(4-Methylpiperazin-1-yl)thiazol-2-yl)-6-(trifluoromethyl)benzo[d]oxazol-2-amine]: the IC50 was at most 1000 nM.

As for `NC(=O)c1csc(Nc2nc3cccc(Cl)c3o2)n1` [Example 36, 2-((7-Chlorobenzo[d]oxazol-2-yl)amino)thiazole-4-carboxamide], the IC50 was at most 1000 nM.

`O=C(NC1CC1)c1cnc(Nc2nc3cc(C(F)(F)F)ccc3o2)s1` [Example 37, N-Cyclopropyl-2-((5-(trifluoromethyl)benzo[d]oxazol-2-yl)amino)thiazole-5-carboxamide]: the IC50 was at most 10000 nM.

As for `Cn1ccc(Nc2nc3cc(C(F)(F)F)ccc3o2)n1` [Example 38, N-(1-Methyl-1H-pyrazol-3-yl)-5-(trifluoromethyl)benzo[d]oxazol-2-amine], the IC50 is at most 10000 nM.

As to `Cc1nnc(Nc2nc3cccc(Cl)c3o2)o1` [Example 39, 7-Chloro-N-(5-methyl-1,3,4-oxadiazol-2-yl)benzo[d]oxazol-2-amine], the IC50 was at most 1000 nM.

With `Cc1nnc(Nc2nc3c(Cl)cc(Cl)cc3o2)o1` [Example 40, 4,6-Dichloro-N-(5-methyl-1,3,4-oxadiazol-2-yl)benzo[d]oxazol-2-amine], the IC50 was at most 100 nM.

Regarding `Cn1cnnc1Nc1nc2cc(C(F)(F)F)ccc2o1` [Example 41, N-(4-methyl-4H-1,2,4-triazol-3-yl)-5-(trifluoromethyl)benzo[d]oxazol-2-amine], the IC50 is at most 1000 nM.

As for `Cc1cc(Nc2nc3cc(C(F)(F)F)c(Cl)cc3o2)no1` [Example 42, 6-Chloro-N-(5-methylisoxazol-3-yl)-5-(trifluoromethyl)benzo[d]oxazol-2-amine], the IC50 is at most 100 nM.

In the case of `FC(F)(F)c1cc2nc(Nc3nnc[nH]3)oc2cc1Cl` [Example 43, 6-Chloro-N-(4H-1,2,4-triazol-3-yl)-5-(trifluoromethyl)benzo[d]oxazol-2-amine], the IC50 was at most 100 nM.

Take `COC(=O)c1ccc2oc(Nc3nnc(C)o3)nc2c1` [Example 44, Methyl 2-((5-methyl-1,3,4-oxadiazol-2-yl)amino)benzo[d]oxazole-5-carboxylate]: the IC50 is at most 100 nM.

As for `Clc1cc(Cl)c2nc(Nc3nnco3)oc2c1` [Example 45, 4,6-Dichloro-N-(1,3,4-oxadiazol-2-yl)benzo[d]oxazol-2-amine], the IC50 is at most 100 nM.

On to `Clc1ccc2nc(Nc3ccon3)oc2c1` [Example 46, 6-Chloro-N-(isoxazol-3-yl)benzo[d]oxazol-2-amine], for which the IC50 was at most 1000 nM.

As for `Fc1cc2nc(Nc3nnco3)oc2cc1Cl` [Example 47, 6-Chloro-5-fluoro-N-(1,3,4-oxadiazol-2-yl)benzo[d]oxazol-2-amine], the IC50 was at most 100 nM.

In the case of `Fc1cc2nc(Nc3nnco3)oc2cc1F` [Example 48, 5,6-diFluoro-N-(1,3,4-oxadiazol-2-yl)benzo[d]oxazol-2-amine], the IC50 is at most 100 nM.

Turning to `FC(F)(F)c1ccc2nc(Nc3ncc(N4CCNCC4)s3)oc2c1` [Example 49, N-(5-(Piperazin-1-yl)thiazol-2-yl)-6-(trifluoromethyl)benzo[d]oxazol-2-amine hydrochloride], the IC50 was at most 1000 nM.

On to `Cc1nnc(Nc2nc3cc(Cl)ccc3o2)o1` [Example 50, 5-Chloro-N-(5-methyl-1,3,4-oxadiazol-2-yl)benzo[d]oxazol-2-amine], for which the IC50 was at most 100 nM.

For the molecule `FC(F)(F)c1cc2oc(Nc3nnc(C4CC4)o3)nc2cn1` [Example 51, N-(5-Cyclopropyl-1,3,4-oxadiazol-2-yl)-6-(trifluoromethyl)oxazolo[4,5-c]pyridin-2-amine], the IC50 is at most 1000 nM.

With `CCOC(=O)c1nnc(Nc2nc3cc(C(F)(F)F)ccc3o2)o1` [Example 52, Ethyl 5-((5-(trifluoromethyl)benzo[d]oxazol-2-yl)amino)-1,3,4-oxadiazole-2-carboxylate], the IC50 was at most 1000 nM.

In the case of `Cc1nnc(Nc2nc3cnc(C(F)(F)F)cc3o2)o1` [Example 53, N-(5-Methyl-1,3,4-oxadiazol-2-yl)-6-(trifluoromethyl)oxazolo[4,5-c]pyridin-2-amine], the IC50 was at most 10000 nM.

As for `Cc1nnc(Nc2nc3ccc(F)cc3o2)o1` [Example 54, 6-Fluoro-N-(5-methyl-1,3,4-oxadiazol-2-yl)benzo[d]oxazol-2-amine], the IC50 is at most 1000 nM.

As for `CCOC(=O)c1nnc(Nc2nc3cc(C(F)(F)F)ccc3n2C)o1` [Example 55, Ethyl 5-((1-methyl-5-(trifluoromethyl)-1H-benzo[d]imidazol-2-yl)amino)-1,3,4-oxadiazole-2-carboxylate], the IC50 was at most 1000 nM.

Turning to `CCOC(=O)c1nnc(Nc2nc3cc(C(F)(F)F)ccc3[nH]2)o1` [Example 56, Ethyl 5-((5-(trifluoromethyl)-1H-benzo[d]imidazol-2-yl)amino)-1,3,4-oxadiazole-2-carboxylate], the IC50 was at most 1000 nM.

Turning to `Clc1cccc2nc(Nc3nnco3)oc12` [Example 57, 7-Chloro-N-(1,3,4-oxadiazol-2-yl)benzo[d]oxazol-2-amine], the IC50 was at most 1000 nM.

`Cc1nnc(Nc2nc3cnccc3o2)o1` [Example 58, N-(5-Methyl-1,3,4-oxadiazol-2-yl)oxazolo[4,5-c]pyridin-2-amine]: the IC50 is at most 10000 nM.

As to `FC(F)(F)c1ccc2oc(Nc3nc4ccncc4o3)nc2c1` [Example 59, N-(5-(triFluoromethyl)benzo[d]oxazol-2-yl)oxazolo[5,4-c]pyridin-2-amine], the IC50 is at most 1000 nM.

Regarding `CCOC(=O)c1nnc(Nc2nc3ccc(Cl)cc3o2)o1` [Example 61, Ethyl 5-((6-chlorobenzo[d]oxazol-2-yl)amino)-1,3,4-oxadiazole-2-carboxylate], the IC50 was at most 100 nM.

Take `Cc1nnc(Nc2nc3c(F)cccc3o2)o1` [Example 62, 4-Fluoro-N-(5-methyl-1,3,4-oxadiazol-2-yl)benzo[d]oxazol-2-amine]: the IC50 is at most 1000 nM.

As to `Fc1ccc2nc(Nc3nnco3)oc2c1` [Example 63, 6-Fluoro-N-(1,3,4-oxadiazol-2-yl)benzo[d]oxazol-2-amine], the IC50 was at most 1000 nM.

As to `Cc1nnc(Nc2nc3cncc(Cl)c3o2)o1` [Example 64, 7-Chloro-N-(5-methyl-1,3,4-oxadiazol-2-yl)oxazolo[4,5-c]pyridin-2-amine], the IC50 was at most 10000 nM.

In the case of `CCOC(=O)c1nnc(Nc2nc3cc(C(F)(F)F)c(Cl)cc3o2)o1` [Example 65, Ethyl 5-((6-chloro-5-(trifluoromethyl)benzo[d]oxazol-2-yl)amino)-1,3,4-oxadiazole-2-carboxylate], the IC50 was at most 100 nM.

Turning to `Fc1ccc2oc(Nc3nnco3)nc2c1` [Example 66, 5-Fluoro-N-(1,3,4-oxadiazol-2-yl)benzo[d]oxazol-2-amine], the IC50 was at most 1000 nM.

`FC(F)(F)c1ccc2[nH]c(Nc3nnco3)nc2c1` [Example 68, N-(5-(Trifluoromethyl)-1H-benzo[d]imidazol-2-yl)-1,3,4-oxadiazol-2-amine]: the IC50 is at most 1000 nM.

Turning to `Cn1c(Nc2nnco2)nc2cc(C(F)(F)F)ccc21` [Example 69, N-(1-methyl-5-(trifluoromethyl)-1H-benzo[d]imidazol-2-yl)-1,3,4-oxadiazol-2-amine], the IC50 was at most 1000 nM.

Regarding `FC(F)(F)c1ccc2oc(Nc3nnc(CN4CCOCC4)o3)nc2c1` [Example 70, N-(5-(morpholinomethyl)-1,3,4-oxadiazol-2-yl)-5-(trifluoromethyl)benzo[d]oxazol-2-amine], the IC50 was at most 1000 nM.

For `FC(F)(F)c1ccc2oc(Nc3nnc(CN4CCCC4)o3)nc2c1` [Example 71, N-(5-(Pyrrolidin-1-ylmethyl)-1,3,4-oxadiazol-2-yl)-5-(trifluoromethyl)benzo[d]oxazol-2-amine], the IC50 was at most 1000 nM.

For `FC(F)(F)c1ccc2oc(Nc3nnc(CN4CCCCC4)o3)nc2c1` [Example 72, N-(5-(Piperidin-1-ylmethyl)-1,3,4-oxadiazol-2-yl)-5-(trifluoromethyl)benzo[d]oxazol-2-amine], the IC50 is at most 1000 nM.

Take `CC1CCCN1Cc1nnc(Nc2nc3cc(C(F)(F)F)ccc3o2)o1` (stereo not drawn) [Example 73, N-(5-((2-Methylpyrrolidin-1-yl)methyl)-1,3,4-oxadiazol-2-yl)-5-(trifluoromethyl)benzo[d]oxazol-2-amine]: the IC50 was at most 1000 nM.

Consider `FC1(F)CCN(Cc2nnc(Nc3nc4cc(C(F)(F)F)ccc4o3)o2)C1` [Example 74, N-(5-((3,3-diFluoropyrrolidin-1-yl)methyl)-1,3,4-oxadiazol-2-yl)-5-(trifluoromethyl)benzo[d]oxazol-2-amine], for which the IC50 was at most 1000 nM.

`COC1CCN(Cc2nnc(Nc3nc4cc(C(F)(F)F)ccc4o3)o2)C1` (stereo not drawn) [Example 75, N-(5-((3-Methoxypyrrolidin-1-yl)methyl)-1,3,4-oxadiazol-2-yl)-5-(trifluoromethyl)benzo[d]oxazol-2-amine]: the IC50 is at most 1000 nM.

Take `N#CC1CCN(Cc2nnc(Nc3nc4cc(C(F)(F)F)ccc4o3)o2)C1` (stereo not drawn) [Example 76, 1-((5-((5-(triFluoromethyl)benzo[d]oxazol-2-yl)amino)-1,3,4-oxadiazol-2-yl)methyl)pyrrolidine-3-carbonitrile]: the IC50 is at most 10000 nM.
